Measured values from US5039792A, “Allatostatins which inhibit insect juvenile hormone biosynthesis” (Oregon State University, priority 1989, dated 1991).
Ends that are not written are not given here.

System: juvenile hormone III synthesis by corpora allata
Test: in vitro radiochemical assay for inhibition of juvenile hormone III synthesis and release by corpora allata
Format: cell-based, Diploptera punctata
Conditions: for IC50: inhibition of juvenile hormone synthesis and release, two hour in vitro radiochemical assay, corpora allata from ten day old pregnant females, read-out: Bioactivity as I.C.50 (Day 10 Donors)
Procedure: This assay for inhibition of JH synthesis is conducted as described by G. E. Pratt and J. R. Finney, in Crop Protection Agents: their biological evaluation, N. R. McFarlane, Ed. (Academic Press, New York, 1976)) except it is modified by the use of rapid partition instead of thin layer chromatography to isolate the newly synthesized JH and also modified by a reduction of incubation time to two hours.
Biological activities are determined for all RP18.cndot.HPLC fractions. […] Juvenile hormone III is synthesized de novo from acetyl-CoA through the classical isoprenoid pathway to farnesyl pyrophosphate (D. A. Schooley and F. C. Baker, in Comprehensive Insect Physiology, Biochemistry and Pharmacology, G. A. Kerkut and L. I. Gilbert, Eds. (Pergamon, Oxford, 1985) Vol. 7, pp. 363-389) and the enzymatic conversion of […] to JH can be stimulated in vitro by exogenous 2E,6E […] (Aldrich, Milwaukee, Wis.) which presumably alleviates a limitation in the biosynthetic flux (R. Feyereisen, J. Koener, S. S. Tobe, in Juvenile Hormone Biochemistry, G. E. Pratt and G. T. Brooks, Eds. (Elsevier, Amsterdam, 1981), pp. 81-92). […] The target of this allatostatin is therefore located early in the biosynthetic pathway. Juvenile hormone synthesis is determined at the end of two hours in these assays and bioactivity is measured as the ability of the peptide to inhibit biosynthesis of the JHIII. The peptide yields as determined from sequence analysis correspond to approximately 35 fmole/brain-complex. This is approximately one third the yield of the smaller known allatostatins (see G. E. Pratt et al. Biochem. & Biophys. Res. Commun. 163:1243 (1989) and A. P. Woodhead et al. Prod. Natl. Acad. Sci. 86:5997 (1989).
The inhibition of JH III synthesis and release by corpora allata (CA) from ten day old pregnant females is measured by an in vitro radiochemical assay. The three hour assay for inhibitors of JH synthesis (G. E. Pratt and J. R. Finney, in Crop Protection Agents: their biological evaluation, N. R. McFarlane, Ed. (Academic Press, New York, 1976) pp. 113-132) is modified by the use of rapid partition instead of thin layer chromatography to isolate the newly synthesized JH III (R. Feyereisen and S. S. Tobe, Anal. Biochem. 111: 372 (1981)) and modified by a reduction of incubation time to two hours. In each assay, run in seven replicates, one pair of CA was incubated with 50 μM (methyl-^3 H) methionine and putative inhibitor in 0.1 mL of TC199 containing 2% Ficoll, 0.1% bovine serum albumin and 0.03% bacitracin. The test glands show maximum sensitivity to the allatostatic action of brain extracts. R. Feyereisen and D. E. Farnsworth, Insect Biochem. 17,939 (1987); S. M. Rankin and B. Stay, J. Insec. Physiol. 33, 551 (1987).

Substance	IC50 [nM]	inhibition of JH III biosynthesis in dose-response assays in the presence of farnesol (in the presence of 200 μM farnesol, JH synthesis determined at the end of two hours)	biological activity in the in vitro assay (inhibition of JH synthesis) (in vitro radiochemical assay, corpora allata)
Ac-AYSYVSEYKRLPVYNFGL-NH2 [acetyl-AYSYVSEYKRLPVYNFGL-NH2]	1.5		
LPVYNFGL-NH2 [LPVYNFGL-NH2]	50		
AYSYVSEYKRLPVYNFGL-NH2 [AYSYVSEYKRLPVYNFGL-NH2]	0.3	totally ineffective	biologically active
RLPVYNFGL-NH2 [RLPVYNFGL-NH2]	270		

The next lines start with results.

IC50 [nM]	Substance	inhibition of JH III biosynthesis in dose-response assays in the presence of farnesol (in the presence of 200 μM farnesol, JH synthesis determined at the end of two hours)	biological activity in the in vitro assay (inhibition of JH synthesis) (in vitro radiochemical assay, corpora allata)
118	LRVYNFGL-NH2 [LRVYNFGL-NH2]		
30	Ac-RLPVYNFGL-NH2 [acetyl-RLPVYNFGL-NH2]		
